This is an account of results in PubChem BioAssay AID179 (DTP/NCI, 2004).

For the experiment, the system named is CEM cells HIV-1 protection, formazan growth assay. Briefly: NCI AIDS Antiviral Assay. The following applies: for IC50: measured here: growth of uninfected CEM cells. The essentials: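 Human CEM cells, uninfected and HIV-1-infected, exposed to five drug concentrations; growth measured by soluble formazan assay and scored as percent protection from infection, with protecting compounds retested.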

The source made the active and inactive calls.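 The calls were made as follows: active = compounds giving half or more protection of infected cells from virus-caused growth loss, again on retest; inactive = the rest.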

Usually EC50 stands for the concentration at which the effect is half-maximal. Broadly, the IC50 is the point on the concentration scale where inhibition reaches its midpoint. A lower IC50 goes with greater potency in that assay. With `CC(C)C1=CC2=C[C@H](O)[C@H]3C(C)(C)CCC[C@]3(C)C2=C(O)C1=O`, the EC50 is over 20 µM and the IC50 came out at 1.62 µM.

As to `COc1ccccc1/C=C/C(=O)C(C)(C)C`, the EC50 is over 120 µM and the IC50 stood at 69.2 µM. The matching figures for `CCOC(=O)c1c(NC(=O)CCC(=O)Nc2sc(C)c(C)c2C(=O)OCC)sc(C)c1C`: over 100 µM and over 100 µM.

With `Cn1ccc(=NS(=O)(=O)c2ccccc2)cc1`, the outcome was inactive. For `Cc1c2oc3c(C)ccc(C(=O)NC4C(=O)NC(C(C)C)C(=O)N5CCCC[C@H]5C(=O)N(C)CC(=O)N(C)[C@@H](C(C)C)C(=O)OC4C)c3nc-2c(C(=O)NC2C(=O)N[C@H](C(C)C)C(=O)N3CCCC[C@H]3C(=O)N(C)CC(=O)N(C)C(C(C)C)C(=O)OC2C)c(N)c1=O` (some centres not stated), the EC50 is over 2 µM and the IC50 amounted to 0.00331 µM. The matching figures for `Cc1ccc(C2[C@H]3C(=O)N(c4ccc(Cc5ccc(N6C(=O)[C@@H]7ON(c8ccccc8)C(c8ccc(C)cc8)[C@@H]7C6=O)cc5)cc4)C(=O)[C@H]3ON2c2ccccc2)cc1` (some centres not stated): over 6.76 µM and over 6.76 µM. `CCOC(=O)c1c(-c2ccc(Br)cc2)ccn1C`: the EC50 was over 200 µM and the IC50 was 74.1 µM.

Turning to `CCOC(=O)c1c(SCCO)n(-c2ccccc2)c(=S)n(-c2ccccc2)c1=O`, the EC50 was over 200 µM and the IC50 is over 200 µM. Regarding `O=C(O)CNCCCCCCNCC(=O)O`, the EC50 was over 631 µM and the IC50 amounted to 617 µM.

As to `COC(=O)c1c(C(=O)OC)c(C(c2ccccc2)c2ccccc2)n(-c2ccccc2)c1Cl`, the EC50 was over 200 µM and the IC50 stood at 64.6 µM.

As for `CN(C)CC1CCC/C(=C\c2ccc(OC(=O)/C=C/c3ccc(Cl)c(Cl)c3)cc2)C1=O` (configuration not stated), the EC50 is over 100 µM and the IC50 turned out to be 1.45 µM. The like results for `N#C/C(=C\c1ccc(O)c(O)c1)C(=O)NCCCCCCCCCCNC(=O)/C(C#N)=C/c1ccc(O)c(O)c1` were, in that order, over 200 µM and 2.75 µM.

With `CC1(O)Cn2c(nc3nccnc32)S1` (configuration not stated), the EC50 was over 603 µM and the IC50 turned out to be 31.6 µM. Take `Nc1c(N=Nc2ccc(-c3ccc(N=Nc4c(S(=O)(=O)O)cc5cc(S(=O)(=O)O)c(N=Nc6ccccc6)c(O)c5c4N)cc3)cc2)ccc2c(S(=O)(=O)O)cccc12`: the result was inactive.

Turning to `C#Cc1cc(CN(CC(=O)OC(C)(C)C)CC(=O)OC(C)(C)C)nc(CN(CC(=O)OC(C)(C)C)CC(=O)OC(C)(C)C)c1`, the EC50 was over 11.5 µM and the IC50 worked out at 0.204 µM.

Regarding `COc1cccc(CCn2c(N)c(C(=O)O)c3ccc([N+](=O)[O-])cc3c2=O)c1`, the EC50 was over 200 µM and the IC50 was found to be 24 µM.

As for `Cc1ccc(-c2n[nH]c(=O)n2/N=C\c2ccc([N+](=O)[O-])cc2)cc1`, the EC50 is over 200 µM and the IC50 is 58.9 µM.

`CC(C)(C)[Si](OC1CC(n2cnc3c(N)ncnc32)OC1CO)(c1ccccc1)c1ccccc1` (configuration not stated): the EC50 was over 100 µM and the IC50 is over 100 µM. Take `CN1C/C(=C\c2cccs2)C(=O)/C(=C/c2cccs2)C1`: the EC50 is over 200 µM and the IC50 was 14.1 µM. The matching figures for `Nc1ccc(S(=O)(=O)Nc2nc3ccccc3nc2N2CCCCC2)cc1`: over 200 µM and 72.4 µM. The like results for `O=C(OCc1ccccc1)N1CCN(C(=O)OCc2ccccc2)CCN(C(=O)OCc2ccccc2)CCN(C(=O)OCc2ccccc2)CCN(C(=O)OCc2ccccc2)CC1` were, in that order, over 100 µM and over 100 µM. In the case of `CC(=O)C1C(=O)C(=O)N(c2ccccc2N2C(=O)C(=O)C(C(C)=O)C2=O)C1=O` (configuration not stated), the outcome was inactive. As for `CC1=CCC2(C#N)CCC1C2O` (configuration not stated), the EC50 is over 1510 µM and the IC50 was over 1510 µM. As for `COc1c(Br)cc(/C=C(\C#N)c2ccccn2)cc1Br`, the EC50 was over 100 µM and the IC50 was over 100 µM. For `COc1ccc(-c2nc(-c3cnccn3)n(Cc3ccccc3)n2)cc1`, the EC50 was 83.2 µM and the IC50 was over 200 µM. With `Cc1ccc(S[C@@](C=O)(NC(=O)OCc2ccccc2)C(F)(F)F)cc1`, the outcome was inactive. On to `Cc1ccc2c(c1)C(=O)/C(=C1/CCc3ccc(C)cc31)C2`, for which the EC50 was over 200 µM and the IC50 is over 200 µM. As to `CC1=CC(C)(C)Nc2ccc(OC(=O)/C=C(C)/C=C/C=C(C)/C=C/C3=C(C)CCCC3(C)C)cc21`, the EC50 is over 200 µM and the IC50 worked out at 27.5 µM. The like results for `C=CCNC(=S)/N=C/c1c(O)c2ccccc2oc1=O` were, in that order, over 64.6 µM and 43.7 µM. The like results for `COc1ccc(-c2c3c(n(C4OC(CO)C(O)C(O)C4O)c(=S)c2C#N)CCCC3)cc1` (configuration not stated) were, in that order, over 200 µM and 55 µM.

On to `O=c1oc2ccccc2c(-c2ccc(O)cc2)c1Oc1ccc(Cl)cc1`, for which the outcome was inactive. `CC1CCCCC12C(C#N)(C#N)C2(C#N)C#N` (configuration not stated): the EC50 was over 20 µM and the IC50 was 9.55 µM.

Turning to `O=C(NCCN1CCOCC1)C1(O)N=C(c2ccccc2)c2ccsc2-n2cccc21` (configuration not stated), the EC50 is over 200 µM and the IC50 came out at 123 µM. The matching figures for `C1CSCCSCCSCCSCCS1`: over 17.4 µM and over 17.4 µM. The like results for `CC(=O)Nc1ccc(C2SCc3nc4ccccc4n32)cc1` (configuration not stated) were, in that order, over 200 µM and over 200 µM. The like results for `Cn1c2ccccc2n2c3ncccc3c(=NCCCC(=O)O)c(C#N)c12` were, in that order, over 200 µM and over 200 µM. On to `C[C@]12CCC3c4ccc(OC(=O)c5ccccc5)cc4CC[C@H]3C1CC[C@@H]2OC(=O)C12OC1CCC2=O` (some centres not stated), for which the EC50 is over 200 µM and the IC50 was found to be 4.07 µM. The like results for `CC(C)(C)COC(=O)NS(=O)(=O)Nc1ccccc1` were, in that order, over 200 µM and over 200 µM.

Turning to `CC(C)(C)C#C[P+](c1ccccc1)(c1ccccc1)c1ccccc1`, the EC50 is over 2 µM and the IC50 was determined as 0.012 µM. The like results for `CC(C)(C)c1cc(C(C)(C)C)c(P=C(Cl)Cl)c(C(C)(C)C)c1` (configuration not stated) were, in that order, over 100 µM and over 100 µM.

With `CCOC(=O)c1c[nH]c2cc(OCC3CC3)c(OCC3CC3)cc2c1=O`, the EC50 was over 200 µM and the IC50 was over 200 µM. As for `CC1(C)CCc2cc3c(cc2O1)OCC1c2cc(O)c(OCc4ccccc4)cc2OC31` (configuration not stated), the EC50 is over 200 µM and the IC50 stood at 23.4 µM. The like results for `O=Cc1cn(CCCCCn2cc(C=O)c3ccccc32)c2ccccc12` were, in that order, over 200 µM and over 200 µM. In the case of `CCO/N=C(/N)c1ncn(Cc2ccccc2)c1NCC(OCC)OCC`, the EC50 is over 661 µM and the IC50 was 339 µM. The matching figures for `COc1ccc(C(=O)NC(=S)Nc2ccccc2)cc1`: over 34.7 µM and over 34.7 µM.

With `NC(N)=N/N=C/c1c(Cl)nc2n1CCS2`, the EC50 was over 200 µM and the IC50 worked out at 102 µM. The like results for `COc1ccc2cc(Oc3ccc(Cl)cc3)c(=O)oc2c1` were, in that order, over 200 µM and over 200 µM.

Regarding `CN(NC(=O)c1cccs1)C1=NCCCN1`, the EC50 was over 200 µM and the IC50 was over 200 µM.

For `NC(Cc1ccc(O)cn1)C(=O)O` (configuration not stated), the EC50 was over 200 µM and the IC50 is over 200 µM. Consider `OC(c1ccc(C(F)(F)F)cc1)C(F)(F)c1nc2ccccc2o1` (configuration not stated), for which the EC50 was over 200 µM and the IC50 was over 200 µM. On to `CCOC(=O)C1=C(O)C(=O)NC(C(=O)OCC)=C(c2ccccc2)C1`, for which the EC50 is over 50.1 µM and the concentration for half-maximal inhibition (IC50) is over 50.1 µM. Regarding `CCN1CCC(O)(c2ccc(Oc3ccc(Cl)cc3)cc2)C(C(=O)c2ccc(Oc3ccc(Cl)cc3)cc2)C1` (configuration not stated), the EC50 is over 200 µM and the IC50 was found to be 7.59 µM. Consider `COc1ccc(/C=C/C(=O)/C=C/c2ccc(OC)cc2)cc1`, for which the EC50 was over 200 µM and the IC50 came to 72.4 µM.

For the compound `Nc1ccc(S(=O)(=O)Nc2cnc3c(Cl)cccc3n2)cc1`, the EC50 is over 537 µM and the IC50 came out at 6.46 µM.

Consider `CC(C)S(=O)(=O)O`, for which the EC50 was over 200 µM and the concentration for half-maximal inhibition (IC50) is over 200 µM. With `O=C(c1ccccc1)c1cc(N=Nc2ccc(/C=C/c3ccc(N=Nc4cc(C(=O)c5ccccc5)c5cccnc5c4O)cc3S(=O)(=O)O)c(S(=O)(=O)O)c2)c(O)c2ncccc12`, the EC50 is over 38.9 µM and the IC50 is over 38.9 µM. With `COc1ccc2c(c1)-c1c(c3cc(OC)ccc3n1CCN(C)C)CC2`, the outcome was inactive.

As for `CC(=O)OCCOCn1c2ccccc2c2c3c(c4c5ccccc5n(COCCOC(C)=O)c4c21)C(=O)N(Cc1ccccc1)C3=O`, the result was inactive. Regarding `Cc1cn(C2CC(N=[N+]=[N-])C(COP(=O)(O)OCC3CCC(n4ccc(N)nc4=O)O3)O2)c(=O)[nH]c1=O` (configuration not stated), the EC50 was 0.0468 µM and the IC50 was 20 µM.

On to `CCCCCCCCCCCCCCCC(=O)OCC(O)CO` (configuration not stated), for which the EC50 is over 15.8 µM and the IC50 is over 15.8 µM. For the compound `CC(=O)Oc1ccc(O)c(O)c1C/C=C(\C)CC/C=C(\C)CC/C=C(\C)CCC=C(C)C`, the result was inactive. As to `CC(C)(c1ccc(Oc2ccc(C#N)c(C#N)c2)cc1)c1ccc(Oc2ccc(C#N)c(C#N)c2)cc1`, the EC50 is over 10.7 µM and the IC50 was over 10.7 µM. Consider `Cn1c2ccccc2c(=O)c2c(O)cc3c(c21)C=CC1(CCCC1)O3`, for which the EC50 is 16.2 µM and the IC50 is over 200 µM. The like results for `CCOC(=O)[C@H]1Nc2ccc(Cl)cc2[C@H]2OCC[C@@H]12` were, in that order, over 178 µM and over 178 µM. In the case of `CC(=O)N1C(=O)C(=O)c2cc(Cl)ccc21`, the result was inactive.

`O=C(c1ccccc1)c1ccc(SSc2ccc(C(=O)c3ccccc3)cc2[N+](=O)[O-])c([N+](=O)[O-])c1`: the EC50 is over 200 µM and the concentration for half-maximal inhibition (IC50) turned out to be 13.8 µM. The like results for `CCOC(=O)C[C@]1(O)[C@@H](CO[Si](C)(C)C(C)(C)C)O[C@@H](n2ccc(=O)[nH]c2=O)[C@@H]1O[Si](C)(C)C(C)(C)C` were, in that order, over 200 µM and 10.7 µM. The matching figures for `Nc1nc2c(nc(N)n2Cc2ccccc2)c(=O)[nH]1`: over 74.1 µM and over 74.1 µM.
